Read-outs that look alike come from different tables or passages of the source.
Tests used:
[1] = E-2.3 inhalative, oral and intravenous single doses in healthy male subjects: plasma concentrations and lung deposition; format: in vivo, human; settings: for concentration at 0 h: 0 h after dose, heading: Geometric mean of plasma concentrations; for concentration at 0.25 h: 0.25 h after dose; for concentration at 0.5 h: 0.5 h after dose; for concentration at 0.75 h: 0.75 h after dose; for concentration at 1 h: 1 h after dose; for concentration at 1.5 h: 1.5 h after dose; for concentration at 2 h: 2 h after dose; for concentration at 2.5 h: 2.5 h after dose; for concentration at 3 h: 3 h after dose; for concentration at 4 h: 4 h after dose; for concentration at 6 h: 6 h after dose; for concentration at 8 h: 8 h after dose; for concentration at 12 h: 12 h after dose; for concentration at 15 h: 15 h after dose; for concentration at 24 h: 24 h after dose; for concentration at 28 h: 28 h after dose; for concentration at 32 h: 32 h after dose; for concentration at 36 h: 36 h after dose
Protocol: E-2.3 Inhalative, Oral and Intravenous Administration of Single Doses of sGC an Activator in Healthy Male Subjects—Lung Deposition
Healthy white male subjects, aged 18 to 45 years with a body mass index (BMI) above/equal 18.5 and below/equal 29.9 kg/m^2 were treated in a clinical phase I study with a single inhaled dose of 1000 μg (nominal dose), a single inhaled dose of 1000 μg (nominal dose)+charcoal block, a single oral dose of 1000 μg and a single infusion over 2 h of 100 μg of example 4. As the bioavailability of an intravenous application is generally 100% per definition and therefore higher than in case of an oral or […], the intravenous dose was carefully selected to be lower than the oral and inhaled dose to avoid higher plasma concentration resulting from a high IV dose and potential side effect, e.g. reduction in blood pressure or syncope. Therefore, 100 μg was selected for the IV dose in this investigation. Seven days washout period between treatments was applied. The subjects swallowed a solution for oral administration (20 ml comprising 1000 μg, see under C-2, table 26). The subjects received a solution as a single infusion over 2 hours (2 ml comprising 100 μg, see under C-2 table 26). The subjects inhaled the drug powder from capsules (see under C-1, tables 17 and 20) inserted into a handheld inhalation device by one deep inhalative breath. After inhalation of the dry powder formulation of this drug, some parts of the nominal dose remain in the capsule and the device, the dose which reaches the body at the mouthpiece is called the emitted dose. The emitted dose can be calculated/determined as followed: nominal dose−(remains in the capsule+remains in the device). After inhalation of the dry powder, one part of the emitted dose enters the gastrointestinal tract (GIT) and is called the oral part of the emitted dose, the other part of the emitted dose which reaches the lung through the respiratory airways is called the lung dose and represents the lung deposited dose. As the lung is the target organ of the effect, the lung deposited dose must be quantified. Lung deposition can be indirectly estimated, by determining the part of the nominal dose which reaches the GIT and the remains in the capsule and the device. To investigate and determine lung deposition, the following investigations were done (see also FIG. 59): • 1—Inhaled application of a single dose of 1000 μg of the dry powder. • 2—Inhaled application of a single dose of 1000 μg of the dry powder in combination with oral administration of charcoal block. The charcoal block capped the oral absorption of GIT part of the dose, as example 4 completely adsorbed to charcoal block. This implies that the concentrations of example 4 measured reach the systemic circulation via the lung. • 3—Administration of a single oral dose of […] example 4 to determine the oral absorption. • 4—Administration of a 2 h infusion of example 4 to investigate the elimination.

sGC = experiment: E-2.2 inhalative administration in healthy male subjects for 14 days: cGMP; format: in vivo, human; settings: 1000 μg once daily inhaled
Protocol: E-2.2 Inhalative Administration of sGC Activators in Healthy Male Subjects for 14 Days to Evaluate Steady State Pharmacokinetics
Healthy white male subjects, aged 18 to 45 years and with a body mass index (BMI) above/equal 18.5 and below/equal 29.9 kg/m2 were treated in a clinical pharmacological phase I study for 14 days with inhaled once daily doses of 1000 μg (nominal dose) of Placebo or of dry powder formulation containing example 4. The subjects inhaled the drug powder from capsules (see under C, e.g. tables 17 and 20) inserted into a handheld inhalation device by one deep inhalative breath into the deep parts of the lung. The intended substantial reduction of increased blood pressure in the central pulmonary blood vessels cannot be evaluated in subjects without pathophysiological impairment of lung function. As surrogate for drug concentration in the lung, plasma concentrations over time have been analysed. […] Drug activity/target engagement in healthy men was controlled in the healthy subjects by analysing blood samples for cGMP.

[2] = male, human, plasma, inhaled, 1000 μg, healthy male subjects, single 1000 μg inhale + Charcoal Block, N = 16, read-out: Geometric mean of plasma concentrations
[3] = male, human, plasma, inhaled, 1000 μg, healthy male subjects, single 1000 μg inhale, N = 16, read-out: Geometric mean of plasma concentrations
[4] = male, human, plasma, iv, 100 μg, healthy male subjects, 100 μg IV infusion over 2 h, N = 15, read-out: Geometric mean of plasma concentrations
[5] = male, human, plasma, po, 1000 μg, healthy male subjects, single 1000 μg oral, N = 16, read-out: Geometric mean of plasma concentrations

Structure (SMILES): O=C(O)c1ccc(CCN(CCc2ccccc2OCc2ccc(-c3ccc(C(F)(F)F)cc3)cc2Cl)[C@H]2CCCc3nc(C(=O)O)ccc32)cc1 [example 4, (5S)—{[2-(4-Carboxyphenyl)ethyl][2-(2-{[3-chloro-4′-(trifluoromethyl)biphenyl-4-yl]methoxy}phenyl)-ethyl]amino}-5,6,7,8-tetrahydroquinoline-2-carboxylic acid as Monohydrate I]
- emitted dose ([1]; after inhalation of 1000 μg in humans): 720 µg
- oral part of the dose ([1]; inhaled 1000 μg): approximately 13 % of the nominal dose
- lung dose (part of nominal dose that reached the lung) ([1]; inhaled dry powder): 16.3 % of the nominal dose
- total part of the dry powder reaching the body ([1]; inhaled dry powder): 18.8 % of the nominal dose
- concentration at 0 h ([1]; male, human, plasma, inhaled, 1000 μg, healthy male subjects, single 1000 μg inhale + Charcoal Block, N = 16): < 0.05 ng/mL
- concentration at 0.25 h [1, 2]: 0.0583 ng/mL
- concentration at 0.5 h [1, 2]: 0.261 ng/mL
- concentration at 0.75 h [1, 2]: 0.491 ng/mL
- concentration at 1 h [1, 2]: 0.662 ng/mL
- concentration at 1.5 h [1, 2]: 0.9 ng/mL
- concentration at 2 h [1, 2]: 0.969 ng/mL
- concentration at 2.5 h [1, 2]: 1.02 ng/mL
- concentration at 3 h [1, 2]: 0.933 ng/mL
- concentration at 4 h [1, 2]: 0.812 ng/mL
- concentration at 6 h [1, 2]: 0.508 ng/mL
- concentration at 8 h [1, 2]: 0.373 ng/mL
- concentration at 12 h [1, 2]: 0.22 ng/mL
- concentration at 15 h [1, 2]: 0.157 ng/mL
- concentration at 24 h [1, 2]: 0.0931 ng/mL
- concentration at 28 h [1, 2]: 0.0761 ng/mL
- concentration at 32 h [1, 2]: 0.0696 ng/mL
- concentration at 36 h [1, 2]: 0.054 ng/mL
- concentration at 0 h ([1]; male, human, plasma, inhaled, 1000 μg, healthy male subjects, single 1000 μg inhale, N = 16): < 0.05 ng/mL
- concentration at 0.25 h [1, 3]: 0.0628 ng/mL
- concentration at 0.5 h [1, 3]: 0.316 ng/mL
- concentration at 0.75 h [1, 3]: 0.622 ng/mL
- concentration at 1 h [1, 3]: 0.869 ng/mL
- concentration at 1.5 h [1, 3]: 1.16 ng/mL
- concentration at 2 h [1, 3]: 1.2 ng/mL
- concentration at 2.5 h [1, 3]: 1.18 ng/mL
- concentration at 3 h [1, 3]: 1.07 ng/mL
- concentration at 4 h [1, 3]: 0.927 ng/mL
- concentration at 6 h [1, 3]: 0.583 ng/mL
- concentration at 8 h [1, 3]: 0.415 ng/mL
- concentration at 12 h [1, 3]: 0.25 ng/mL
- concentration at 15 h [1, 3]: 0.181 ng/mL
- concentration at 24 h [1, 3]: 0.106 ng/mL
- concentration at 28 h [1, 3]: 0.0793 ng/mL
- concentration at 32 h [1, 3]: 0.0698 ng/mL
- concentration at 36 h [1, 3]: 0.058 ng/mL
- concentration at 0 h ([1]; male, human, plasma, iv, 100 μg, healthy male subjects, 100 μg IV infusion over 2 h, N = 15): < 0.05 ng/mL
- concentration at 0.25 h [1, 4]: 1.76 ng/mL
- concentration at 0.5 h [1, 4]: 2.52 ng/mL
- concentration at 0.75 h [1, 4]: 2.68 ng/mL
- concentration at 1 h [1, 4]: 2.99 ng/mL
- concentration at 1.5 h [1, 4]: 3.15 ng/mL
- concentration at 2 h [1, 4]: 3.07 ng/mL
- concentration at 2.083 h ([1]; male, human, plasma, iv, 100 μg, healthy male subjects, 100 μg IV infusion over 2 h, N = 15, 2.083 h after dose, read-out: Geometric mean of plasma concentrations): 2.57 ng/mL
- concentration at 2.25 h ([1]; male, human, plasma, iv, 100 μg, healthy male subjects, 100 μg IV infusion over 2 h, N = 15, 2.25 h after dose, read-out: Geometric mean of plasma concentrations): 1.42 ng/mL
- concentration at 2.5 h [1, 4]: 0.559 ng/mL
- concentration at 2.75 h ([1]; male, human, plasma, iv, 100 μg, healthy male subjects, 100 μg IV infusion over 2 h, N = 15, 2.75 h after dose, read-out: Geometric mean of plasma concentrations): 0.264 ng/mL
- concentration at 3 h [1, 4]: 0.132 ng/mL
- concentration at 0 h ([1]; male, human, plasma, po, 1000 μg, healthy male subjects, single 1000 μg oral, N = 16): < 0.05 ng/mL
- concentration at 0.25 h [1, 5]: 0.777 ng/mL
- concentration at 0.5 h [1, 5]: 3.64 ng/mL
- concentration at 0.75 h [1, 5]: 5.28 ng/mL
- concentration at 1 h [1, 5]: 5.68 ng/mL
- concentration at 1.5 h [1, 5]: 4.69 ng/mL
- concentration at 2 h [1, 5]: 3.32 ng/mL
- concentration at 2.5 h [1, 5]: 2.26 ng/mL
- concentration at 3 h [1, 5]: 1.6 ng/mL
- concentration at 4 h [1, 5]: 1.01 ng/mL
- concentration at 6 h [1, 5]: 0.424 ng/mL
- concentration at 8 h [1, 5]: 0.233 ng/mL
- concentration at 12 h [1, 5]: 0.126 ng/mL
- concentration at 15 h [1, 5]: 0.0714 ng/mL
- steady state of cGMP concentration reached after days of treatment (sGC): ≤ 11 days

Source: patent US12202805B2, “Process for preparing (5S)-{[2-(4-carboxyphenyl)ethyl] |2-(2-{|3-chloro-4'-(trifluoromethyl)biphenyl-4-yl]methoxy}phenyl)ethyl]aminol-5,6,7,8-tetrahydroquinoline-2-carboxylic acid and its crystalline forms for use as pharmaceutically active compound” (Bayer Aktiengesellschaft, priority 2021, dated 2025)
